This is an account of results in patent US4272437A, “Antibacterial agents, and 4-thio azetidinone intermediates” (priority 1979, dated 1981).

SMILES strings stand for the structures. ≈ marks a conversion by molar mass, not a printed value. Read-outs that look alike come from different tables or passages of the source. Bounds are passed on as bounds.

One test deals with Ent. cloacae A-9656. Description: MIC, tube dilution, Enterobacter cloacae A9656. It counts as cell-based. Particulars: overnight 37° C., read-out: Minimum Inhibitory Concentration (M.I.C.). An excerpt: (§1) Representative compounds of the present invention were subjected to in vitro antibiotic screening against a variety of microorganisms.
For test [1], the system named is Staph. aureus (Meth-Res) A-15097. As to the kind of experiment: MIC, tube dilution, Staphylococcus aureus A15097 (Meth-Res). It counts as cell-based. To be noted: Staphylococcus aureus, read-out: Minimum Inhibitory Concentration (M.I.C.), Staph. aureus A15097 (Meth-Res); overnight 37° C.
Text: as §1

In the next test the test system is Str. pneumoniae A-9585. Description: MIC, tube dilution, Streptococcus pneumoniae A9585. It counts as cell-based. To be noted: Streptococcus pneumoniae, A9585, Str. pneumoniae A9585; overnight 37° C., Nutrient Broth; read-out: Minimum Inhibitory Concentration (M.I.C.).
Text: as §1

The subject of the next test is Pr. mirabilis A-9900. As to the kind of experiment: MIC, tube dilution, Proteus mirabilis A9900. It counts as cell-based. To be noted: Proteus mirabilis, A9900, Proteus mirabilis A9900; overnight 37° C.; read-out: Minimum Inhibitory Concentration (M.I.C.).
Text: as §1

The subject of a further test is Ser. marcescens A-20019. As to the kind of experiment: MIC, tube dilution, Serratia marcescens A20019. It counts as cell-based. To be noted: Serratia marcescens, A20019, Serratia marcescens A20019; overnight 37° C.; read-out: Minimum Inhibitory Concentration (M.I.C.).
Text: as §1

A further test has as its system K. pneumoniae A-15130. As to the kind of experiment: MIC, tube dilution, Klebsiella pneumoniae A15130. It counts as cell-based. To be noted: Klebsiella pneumoniae, A15130, K. pneumoniae A15130; overnight 37° C.; read-out: Minimum Inhibitory Concentration (M.I.C.).
Text: as §1

The test system of test [2] is Staph. aureus (Pen-Res) A-9606. As to the kind of experiment: MIC, tube dilution, Staphylococcus aureus A9606 (Pen-Res). It counts as cell-based. To be noted: Staphylococcus aureus, overnight 37° C.
Text: as §1

The next test has as its system Str. faecalis A-20688. As to the kind of experiment: MIC, tube dilution, Streptococcus faecalis A20688. Particulars: Enterococcus faecalis, A20688, Str. faecalis A20688; overnight 37° C.; read-out: Minimum Inhibitory Concentration (M.I.C.). It counts as cell-based.
Text: as §1

The subject of another test is Proteus rettgeri A21203. As to the kind of experiment: MIC, tube dilution, Proteus rettgeri A21203. It counts as cell-based. Particulars: Providencia rettgeri, overnight 37° C., read-out: Minimum Inhibitory Concentration (M.I.C.).
Text: as §1

The next test relates to Str. pyogenes A-9604. Description: MIC, tube dilution, Streptococcus pyogenes A9604. To be noted: Streptococcus pyogenes, A9604, Str. pyogenes A9604; overnight 37° C., Nutrient Broth; read-out: Minimum Inhibitory Concentration (M.I.C.). It counts as cell-based.
Text: as §1

Another test deals with E. coli A-20341-1. As to the kind of experiment: MIC, tube dilution, Escherichia coli A20341-1. Particulars: Escherichia coli, A203411; E. coli A20341-1; overnight 37° C.; read-out: Minimum Inhibitory Concentration (M.I.C.). It counts as cell-based.
Text: as §1

The subject of test [3] is Klebsiella species A20468. As to the kind of experiment: MIC, tube dilution, Klebsiella species A20468. Particulars: Klebsiella species (K. pneumoniae) A20468; overnight 37° C.; read-out: Minimum Inhibitory Concentration (M.I.C.). It counts as cell-based.
Text: as §1

A further test deals with Pr. vulgaris A-9716. Description: MIC, tube dilution, Proteus vulgaris / Proteus mirabilis A9716. Particulars: Proteus vulgaris, overnight 37° C. It counts as cell-based, Proteus vulgaris (name changed to Proteus mirabilis).
Text: as §1

The next test deals with Ps. aeruginosa A-9843A. As to the kind of experiment: MIC, tube dilution, Pseudomonas aeruginosa A9843A. To be noted: Pseudomonas aeruginosa, A9843A, read-out: Minimum Inhibitory Concentration (M.I.C.), Pseudomonas aeruginosa A9843A; overnight 37° C. It counts as cell-based.
Text: as §1

In a further test the test system is Pr. morganii A-15153. Description: MIC, tube dilution, Proteus morganii A15153. It counts as cell-based. To be noted: Morganella morganii, A15153, Proteus morganii A15153; overnight 37° C.; read-out: Minimum Inhibitory Concentration (M.I.C.).
Text: as §1

Another test concerns Staph. aureus A-9537. Description: MIC, tube dilution, Staphylococcus aureus A9537. To be noted: Staphylococcus aureus, A9537, Staph. aureus A9537; overnight 37° C., Nutrient Broth; read-out: Minimum Inhibitory Concentration (M.I.C.). It counts as cell-based.
Text: as §1

The test system of another test is Ent. cloacae A-9659. As to the kind of experiment: MIC, tube dilution, Enterobacter cloacae A9659. It counts as cell-based. Particulars: Enterobacter cloacae, A9659, Enterobacter cloacae A9659; overnight 37° C.; read-out: Minimum Inhibitory Concentration (M.I.C.).
Text: as §1

Test [4] deals with Staph. aureus A-9537 and 50% serum. As to the kind of experiment: MIC, tube dilution, Staph. aureus A9537 + 50% serum. It counts as cell-based, Staphylococcus aureus. Particulars: Staphylococcus aureus, overnight 37° C., read-out: Minimum Inhibitory Concentration (M.I.C.).
Text: as §1

Another test relates to E. coli A-15119. Description: MIC, tube dilution, Escherichia coli A15119. It counts as cell-based. Particulars: Escherichia coli, A15119, E. coli A15119; overnight 37° C.; read-out: Minimum Inhibitory Concentration (M.I.C.).
Text: as §1

In a further test the test system is Ps. aeruginosa A-21213. Description: MIC, tube dilution, Pseudomonas aeruginosa A21213. It counts as cell-based. To be noted: Pseudomonas aeruginosa A21213; overnight 37° C.; read-out: Minimum Inhibitory Concentration (M.I.C.).
Text: as §1

Where [5] appears, read: read-out: Minimum Inhibitory Concentration (M.I.C.), Staph. aureus A9606 (Pen-Res).
Setting [6] is: Staph. aureus A9606 (Pen-Res), read-out: Minimum Inhibitory Concentration (M.I.C.).
[7] abbreviates: A21203, Proteus rettgeri A21203.
Setting [8] is: A9716, Proteus vulgaris / Proteus mirabilis A9716, read-out: Minimum Inhibitory Concentration (M.I.C.).

In the case of `Cc1cc(CC2=C(C(=O)O)N3C(=O)CC3S2)on1` (centres unmarked) [Example 20], the MIC is over 125 µg/mL in the test with Ent. cloacae A-9656 (Enterobacter cloacae A9656); over 125 µg/mL in test [1]; 8 µg/mL (≈ 30 µM) in the test with Str. pneumoniae A-9585; over 125 µg/mL with Pr. mirabilis A-9900; over 125 µg/mL with Ser. marcescens A-20019; over 125 µg/mL with K. pneumoniae A-15130. Moreover, the MIC in test [2] (setting [5]) is over 125 µg/mL; in the test with Str. faecalis A-20688, over 125 µg/mL; in the test on Proteus rettgeri A21203 (Proteus rettgeri A21203), 125 µg/mL (≈ 469 µM); in the test on Str. pyogenes A-9604, 63 µg/mL (≈ 237 µM); in the test on E. coli A-20341-1, over 125 µg/mL; in test [3], over 125 µg/mL. Also, the MIC in the test with Pr. vulgaris A-9716 (A9716, read-out: Minimum Inhibitory Concentration (M.I.C.), Proteus vulgaris / Proteus mirabilis A9716) is 125 µg/mL (≈ 469 µM); in the test on Ps. aeruginosa A-9843A, 125 µg/mL (≈ 469 µM); in the test with Pr. morganii A-15153, 125 µg/mL (≈ 469 µM); in the test on Staph. aureus A-9537, over 125 µg/mL; with Ent. cloacae A-9659, over 125 µg/mL; in test [4], over 63 µg/mL. The MIC is over 125 µg/mL in the test with E. coli A-15119 and 125 µg/mL (≈ 469 µM) with Ps. aeruginosa A-21213.

`O=C(O)C1=C(C2CCC2)SC2CC(=O)N12` (centres unmarked) [Example 21, 2-Cyclobutylpenem-3-carboxylic Acid]: the MIC was 32 µg/mL (≈ 142 µM) in the test with Ent. cloacae A-9656 (Enterobacter cloacae, A9656, Enterobacter cloacae A9656); over 125 µg/mL in test [1]; 0.13 µg/mL (≈ 0.577 µM) in the test with Str. pneumoniae A-9585; 2 µg/mL (≈ 8.88 µM) in the test on Pr. mirabilis A-9900; 16 µg/mL (≈ 71 µM) with Ser. marcescens A-20019; 16 µg/mL (≈ 71 µM) in the test on K. pneumoniae A-15130. Further, the MIC in test [2] (setting [6]) is 8 µg/mL (≈ 35.5 µM); in the test with Str. faecalis A-20688, 16 µg/mL (≈ 71 µM); in the test with Proteus rettgeri A21203 (setting [7]), 4 µg/mL (≈ 17.8 µM); with Str. pyogenes A-9604 it was 1 µg/mL (≈ 4.44 µM); in the test with E. coli A-20341-1, 125 µg/mL (≈ 555 µM); in [3] it was over 125 µg/mL. Moreover, the MIC in the test with Pr. vulgaris A-9716 (setting [8]) was 2 µg/mL (≈ 8.88 µM); in the test on Ps. aeruginosa A-9843A it was 125 µg/mL (≈ 555 µM); in the test on Pr. morganii A-15153, 16 µg/mL (≈ 71 µM); in the test with Staph. aureus A-9537 it was 0.13 µg/mL (≈ 0.577 µM); in the test with Ent. cloacae A-9659, 16 µg/mL (≈ 71 µM); in [4], over 63 µg/mL. Also, the figures for the MIC with E. coli A-15119 and with Ps. aeruginosa A-21213 were 4 µg/mL (≈ 17.8 µM) and 125 µg/mL (≈ 555 µM), respectively.

On to `CON=C(C)CC1=C(C(=O)O)N2C(=O)CC2S1` (centres unmarked) [Example 44, Sodium 2-(Acetonylmethyl oxime)-penem-3-carboxylate], for which the MIC is over 125 µg/mL in the test on Ent. cloacae A-9656 (Enterobacter cloacae A9656); over 125 µg/mL in test [1]; 2 µg/mL with Str. pneumoniae A-9585; 63 µg/mL in the test on Pr. mirabilis A-9900; over 125 µg/mL in the test with Ser. marcescens A-20019; over 125 µg/mL with K. pneumoniae A-15130. In addition, the MIC in test [2] (setting [5]) was over 125 µg/mL; in the test on Str. faecalis A-20688, 125 µg/mL; in the test on Proteus rettgeri A21203 (Proteus rettgeri A21203), 125 µg/mL; in the test with Str. pyogenes A-9604 it was 16 µg/mL; in the test with E. coli A-20341-1, over 125 µg/mL; in test [3] it was over 125 µg/mL. The MIC was 63 µg/mL in the test on Pr. vulgaris A-9716 (setting [8]); 125 µg/mL in the test on Ps. aeruginosa A-9843A; 125 µg/mL in the test with Pr. morganii A-15153; 32 µg/mL in the test on Staph. aureus A-9537; over 125 µg/mL in the test with Ent. cloacae A-9659; over 63 µg/mL in test [4]. Further, the MIC in the test on E. coli A-15119 came out at 63 µg/mL; in the test with Ps. aeruginosa A-21213, 125 µg/mL.

Regarding `Nc1ccccc1CC1=C(C(=O)O)N2C(=O)CC2S1` (centres unmarked) [Example 45, Sodium 2-(2'-Aminophenyl)methylpenem-3-carboxylate], the MIC in the test on Ent. cloacae A-9656 (Enterobacter cloacae A9656) came to 125 µg/mL; in test [1] it was 125 µg/mL; in the test with Str. pneumoniae A-9585 it was 0.5 µg/mL; in the test on Pr. mirabilis A-9900, 32 µg/mL; in the test on Ser. marcescens A-20019 it was 125 µg/mL; in the test with K. pneumoniae A-15130 it was 125 µg/mL. Besides, the MIC in test [2] (setting [6]) is 4 µg/mL; in the test with Str. faecalis A-20688, 125 µg/mL; in the test with Proteus rettgeri A21203 (setting [7]), 63 µg/mL; in the test with Str. pyogenes A-9604, 1 µg/mL; with E. coli A-20341-1, 125 µg/mL; in [3], 125 µg/mL. The MIC worked out at 63 µg/mL in the test on Pr. vulgaris A-9716 (setting [8]); 125 µg/mL in the test on Ps. aeruginosa A-9843A; 125 µg/mL in the test with Pr. morganii A-15153; 1 µg/mL in the test with Staph. aureus A-9537; 125 µg/mL in the test with Ent. cloacae A-9659; 63 µg/mL in test [4]. In addition, the MIC with E. coli A-15119 and in the test on Ps. aeruginosa A-21213 was 125 µg/mL each time.
